Test results taken from patent US20220289680A1, “METHODS FOR MAKING DIMERIC NAPHTHALIMIDES AND SOLID STATE FORMS OF THE SAME” (Alucent Biomedical, Inc., priority 2018, published 2022).
Each block holds one compound with its values, some of them ahead of it.

Tests used:
Type in all cases: physicochemical
[1] = Dynamic vapor sorption (DVS) analysis; details: 25° C.
Method: (§1) DVS analysis was carried out using a TA Instruments Q5000 Dynamic Vapor Sorption analyzer. The instrument was calibrated with standard weights and a sodium bromide standard for humidity. Approximately 10-25 mg of sample was loaded into a metal-coated quartz pan for analysis. The sample was analyzed at 25° C. with a maximum equilibration time of one hour in 10% relative humidity (RH) steps from 5% to 95% RH (adsorption cycle) and from 95% to 5% RH (desorption cycle). The movement from one step to the next occurred either after satisfying the equilibrium criterion of 0.01% weight change or, if the equilibrium criterion was not met, after one hour. The percent weight change values were calculated using Microsoft Excel®.

[2] = Post-DVS X-ray powder diffraction analysis (solid form stability); details: after DVS cycling 5%-95%-5% RH
Source text: (§2) The Rigaku Smart-Lab X-ray diffraction system was configured for reflection Bragg-Brentano geometry using a line source X-ray beam. The x-ray source was a Cu Long Fine Focus tube that was operated at 40 kV and 44 ma. That source provided an incident beam profile (at the sample) that changed from a narrow line at high angles to a broad rectangle at low angles. Beam conditioning slits were used on the X-ray source to ensure that the maximum beam size is less than 10 mm, both along the line and normal to the line. The Rigaku Smart-Lab was operated to give peak widths of 0.1 degrees two-theta or less. The axial divergence of the X-ray beam was controlled by 5.0-degree Soller slits in both the incident and diffracted beam paths.
(§3) Powder samples were prepared in a low-background Si holder using light manual pressure to keep the sample surfaces flat and level with the reference surface of the sample holder. Each sample was analyzed from 2 to 40 degrees two-theta using a continuous scan of 6 degrees two-theta per minute, with an effective step size of 0.02 degrees two-theta.
as §1

[3] = Post-heating X-ray powder diffraction analysis (solid form stability); details: heated at 80° C. for 20 minutes
Source text: as §2, §3
A sample of Form 2 was heated at 80° C. for 20 minutes. After cooling, the sample was analyzed using x-ray powder diffraction.

[4] = Solubility measurements in various solvents (visual inspection of dissolution); details: thermodynamic from solid
Method: The mass of a sample of Compound of Formula (I) was determined, and to that sample was added an aliquot of solvent, as shown in Table 5. Visual inspection was used to determine whether dissolution occurred. The solubility of Compound of Formula (I) in each solvent was calculated by dividing the weight of the sample by the total amount of solvent used to dissolve the sample. Table 6 lists the solubility of Compound of Formula (I) in each solvent.

[5] = sample of Example 3 (synthesized by a method similar to Example 4, Form 1)
[6] = slurry-derived samples of Example 2

DVS weight gain when cycling from 5% to 95% relative humidity [1, 5]: 16.36% | DVS weight loss upon drying at 5% relative humidity [1, 5]: 0.66% | DVS weight loss when cycling from 95% to 5% relative humidity [1, 5]: 15.51% | DVS weight gain when cycling from 5% to 95% relative humidity [1, 6]: 13.04% | DVS weight loss upon drying at 5% relative humidity [1, 6]: 0.6% | DVS weight loss when cycling from 95% to 5% relative humidity [1, 6]: 13.12% | XRPD pattern after DVS cycling relative to the same sample prior to DVS analysis [2]: unchanged
SMILES: NCCOCCOCCNc1ccc2c3c(cccc13)C(=O)N(CCOCCOCCN1C(=O)c3cccc4c(NCCOCCOCCN)ccc(c34)C1=O)C2=O [Form 1, 2,2′-((ethane-1,2-diylbis(oxy))bis(ethane-2,1-diyl))bis(6-((2-(2-(2-aminoethoxy)ethoxy)ethyl)amino)-1H-benzo[de]isoquinoline-1,3(2H)-dione)]

DVS weight gain when cycling from 5% to 95% relative humidity [1, 6]: 7.2% | DVS weight loss upon drying at 5% relative humidity [1, 6]: 1.44% | DVS weight loss when cycling from 95% to 5% relative humidity [1, 6]: 14.63% | XRPD pattern after DVS cycling relative to the same sample prior to DVS analysis [2]: less crystalline | XRPD pattern after heating relative to the same sample before [3]: less crystalline
SMILES: NCCOCCOCCNc1ccc2c3c(cccc13)C(=O)N(CCOCCOCCN1C(=O)c3cccc4c(NCCOCCOCCN)ccc(c34)C1=O)C2=O [Form 2, 2,2′-((ethane-1,2-diylbis(oxy))bis(ethane-2,1-diyl))bis(6-((2-(2-(2-aminoethoxy)ethoxy)ethyl)amino)-1H-benzo[de]isoquinoline-1,3(2H)-dione)]

solubility ([4]; 1,1,1,3,3,3-hexafluoro-2-propanol (HFIPA), organic solvent or mixture): 18000 µg/mL | solubility ([4]; 1,4-dioxane, organic solvent or mixture): < 1000 µg/mL | solubility ([4]; 2,2,2-trifluoroethanol (TFE), organic solvent or mixture): 18000 µg/mL | solubility ([4]; 2-methyl tetrahydrofuran (2-MeTHF), organic solvent or mixture): < 1000 µg/mL | solubility ([4]; N,N-dimethylformamide (DMF), organic solvent or mixture, N,N-dinnethylformamide (DMF)): < 1000 µg/mL | solubility ([4]; acetone, organic solvent or mixture): < 1000 µg/mL | solubility ([4]; acetone/water (95/5, v/v), organic solvent or mixture): < 1000 µg/mL | solubility ([4]; acetonitrile/water (95/5, v/v), organic solvent or mixture): < 1000 µg/mL | solubility ([4]; dichloromethane (DCM), organic solvent or mixture): < 1000 µg/mL | solubility ([4]; dimethylsulfoxide (DMSO), organic solvent or mixture): < 1000 µg/mL | solubility ([4]; ethanol/water (95/5, v/v), organic solvent or mixture): < 1000 µg/mL | solubility ([4]; methyl ethyl ketone (MEK), organic solvent or mixture): < 1000 µg/mL | solubility ([4]; organic solvent or mixture, 2-propanol (2-PrOH)): < 1000 µg/mL | solubility ([4]; organic solvent or mixture, acetonitrile (CAN)): < 1000 µg/mL | solubility ([4]; organic solvent or mixture, diethyl ether (Et2O)): < 1000 µg/mL | solubility ([4]; organic solvent or mixture, ethanol (EtOH)): < 1000 µg/mL | solubility ([4]; organic solvent or mixture, ethyl acetate (EtOAc)): < 1000 µg/mL | solubility ([4]; organic solvent or mixture, methanol (MeOH)): < 1000 µg/mL | solubility ([4]; tetrahydrofuran (THF), organic solvent or mixture): < 1000 µg/mL | solubility ([4]; tetrahydrofuran/water (95/5, v/v), organic solvent or mixture): < 1000 µg/mL | solubility ([4]; toluene, organic solvent or mixture): < 1000 µg/mL | solubility ([4]; water): < 1000 µg/mL | DVS weight gain when cycling from 5% to 95% relative humidity [1, 5]: 16.36% | DVS weight loss upon drying at 5% relative humidity [1, 5]: 0.66% | DVS weight loss when cycling from 95% to 5% relative humidity [1, 5]: 15.51% | XRPD pattern after DVS cycling relative to the same sample prior to DVS analysis [2]: unchanged
SMILES: NCCOCCOCCNc1ccc2c3c(cccc13)C(=O)N(CCOCCOCCN1C(=O)c3cccc4c(NCCOCCOCCN)ccc(c34)C1=O)C2=O [Compound of Formula (I), 2,2′-((ethane-1,2-diylbis(oxy))bis(ethane-2,1-diyl))bis(6-((2-(2-(2-aminoethoxy)ethoxy)ethyl)amino)-1H-benzo[de]isoquinoline-1,3(2H)-dione)]
